From PubChem BioAssay AID1963869 (Molecular Pharmacology Branch, DTP, NCI, 2024)

Tested on: KRAS patient-derived spheroids with HUVEC/MSC, viability
Test: Anticancer human tumor 323965-272-R-J2-PDC patient-derived pancreatic carcinoma cell line growth inhibition [KRAS2]
Details: for IC50: curve of first compound; for viability, T/C: stronger effect = lower value
Source text: Multicellular complex tumor spheroid response to RAS pathway inhibitors in combination with a targeted agents in patient-derived cell lines with oncogenic KRAS variants from multiple cancer types
A high-throughput screen of multi-cell type tumor spheroids was designed to identify active combinations of targeted small molecules and KRAS pathway inhibitors. Complex spheroids include a stromal component modeled by human endothelial cells (HUVEC) and fibroblasts modeled by human mesenchymal stem cells (MSCs). The concentration ranges selected for each drug and investigational agent were based upon clinically achievable concentrations if the clinical Cmax of the agent was known.
Compounds. The drugs and investigational agents: BI-3406 (NSC825286), BAY-293 (NSC824723), batoprotafib (TNO155; NSC825523), sotorasib (AMG 510; NSC818433), MRTX1257 (NSC819558), elimusertib (BAY 1895344; NSC800525), molibresib (GSK525762; NSC774829), temuterkib (LY3214996; NSC803410), venetoclax (NSC766270), alisertib (NSC759677), olaparib (NSC753686), talazoparib (NSC767125), erdafitinib (NSC781556), ipatasertib (NSC767898), cabozantinib (NSC761068), nintedanib (NSC756659), abemaciclib (NSC768073), docetaxel (NSC628503), trametinib (NSC758246), and sapanisertib (NSC764658) were obtained from the National Cancer Institute (NCI) Developmental Therapeutics Program Chemical Repository. The FDA-approved anticancer drug set is available from the Developmental Therapeutics Program. […] The stock solutions were prepared in dimethyl sulfoxide (DMSO, Sigma-Aldrich, St. Louis, MO, cat. D2650) at 800-fold the tested concentration and stored at -70 degrees C prior to their use. All drugs and investigational agents were tested over a range starting from a high concentration at or near the clinical Cmax and decreasing in half-log increments. If the clinical Cmax for an agent had not been determined, the highest concentration tested was 10 microM.
Cell Culture. All cells were maintained in an incubator at 37 degrees C and 5% CO2 with 95% humidity. The PDC lines were cultured according to standard operating procedures established by the NCI PDMR (https://pdmr.cancer.gov/sops/default.htm). Briefly, all PDCs were thawed and cultured in Matrigel-coated flasks prepared with a working solution of 1X Ham's F-12 nutrient mix, without supplementation (Invitrogen, Waltham, MA, cat. 11765054), 100 U/mL penicillin-streptomycin (Invitrogen, cat. 15140122), and 2.5% Matrigel (Corning Inc., Corning, NY, cat. 354248) for the first three passages. All PDCs were cultured in complete DMEM/F-12 media containing advanced DMEM/F-12 (Invitrogen, cat. 12634028), 4.9% defined fetal bovine serum, heat inactivated (HyClone Laboratories Inc., Logan, UT, cat. SH30070.03HI), 389 ng/mL hydrocortisone (Sigma-Aldrich, cat. H4001), 9.7 ng/mL human EGF recombinant protein (Invitrogen, cat. PHG0313), 23.4 microg/mL adenine (Sigma-Aldrich, cat. A2786), 97.3 U/mL penicillin-streptomycin (Invitrogen, cat. 15140122), 1.9 mM L-glutamine (Invitrogen, cat. 25030081), and 9.7 microM Y-27632 dihydrochloride (Tocris Bioscience, Bristol, United Kingdom, cat. 1254). The PDCs were cultured in complete DMEM/F12 media without 9.7 microM Y-27632 dihydrochloride for at least two passages prior to the screen. The established cell line HOP-62 was cultured in RPMI 1640 medium, HEPES (Invitrogen, cat. 22400105) with 10% defined fetal bovine serum (HyClone Laboratories Inc., cat. SH30070.03) and 2 mM L-glutamine (Invitrogen, cat. 25030081). The pooled donor HUVEC were cultured in endothelial cell growth medium 2 (PromoCell, Heidelberg, Germany, cat. C-22011) and the hMSC were cultured in mesenchymal stem cell growth medium 2 (PromoCell, cat. C-28009). For all experiments, HUVEC and hMSC were used at passages </=5, while the malignant cell lines were used at passages </=15. […]

[1] = second compound 0.1 µM, first compound 0.01 µM
[2] = second compound 0.1 µM, first compound 0.0316 µM
[3] = second compound 0.1 µM, first compound 0.1 µM
[4] = second compound 0.1 µM, first compound 0.316 µM
[5] = second compound 0.1 µM, first compound 1 µM
[6] = second compound 0.1 µM, first compound 3.16 µM
[7] = second compound 0.316 µM, first compound 0.01 µM
[8] = second compound 0.316 µM, first compound 0.0316 µM
[9] = second compound 0.316 µM, first compound 0.1 µM
[10] = second compound 0.316 µM, first compound 0.316 µM
[11] = second compound 0.316 µM, first compound 1 µM
[12] = second compound 0.316 µM, first compound 3.16 µM
[13] = second compound 1 µM, first compound 0.01 µM
[14] = second compound 1 µM, first compound 0.0316 µM
[15] = second compound 1 µM, first compound 0.1 µM
[16] = second compound 1 µM, first compound 0.316 µM
[17] = second compound 1 µM, first compound 1 µM
[18] = second compound 1 µM, first compound 3.16 µM
[19] = second compound 3.16 µM, first compound 0.01 µM
[20] = second compound 3.16 µM, first compound 0.0316 µM
[21] = second compound 3.16 µM, first compound 0.1 µM
[22] = second compound 3.16 µM, first compound 0.316 µM
[23] = second compound 3.16 µM, first compound 1 µM
[24] = second compound 3.16 µM, first compound 3.16 µM
[25] = second compound 10 µM, first compound 0.01 µM
[26] = second compound 10 µM, first compound 0.0316 µM
[27] = second compound 10 µM, first compound 0.1 µM
[28] = second compound 10 µM, first compound 0.316 µM
[29] = second compound 10 µM, first compound 1 µM
[30] = second compound 10 µM, first compound 3.16 µM
[31] = second compound 0.1 µM, first compound 10 µM
[32] = second compound 0.316 µM, first compound 10 µM
[33] = second compound 1 µM, first compound 10 µM
[34] = second compound 3.16 µM, first compound 10 µM
[35] = second compound 10 µM, first compound 10 µM
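Further: spheroids exposed to agents for 7 days.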
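Wherever viability, T/C is given: 100% = DMSO vehicle control viability.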

`CC1COCCN1c1cc(-c2ccnn2C)c2ccnc(-c3ccn[nH]3)c2n1` (stereo not given) + C=CC(=O)N1CCN(c2nc(=O)n(-c3c(C)ccnc3C(C)C)c3nc(-c4c(O)cccc4F)c(F)cc23)C(C)C1 was tested, and the IC50 (second compound 0.1 µM) was 11.6 nM, the IC50 (second compound 0.316 µM) was < 10 nM and the IC50 (second compound 1 µM) was 11.9 nM. For the same compound, the IC50 (second compound 3.16 µM) was < 10 nM, the IC50 (second compound 10 µM) was < 10 nM and the viability, T/C [1] was 53.6%. The viability, T/C [2] was 28%, the viability, T/C [3] was 18.7% and the viability, T/C [4] was 13.7%. The viability, T/C [5] was 13.8%, the viability, T/C [6] was 11.8% and the viability, T/C [7] was 44.2%. It also gave a viability, T/C [8] of 28.8%, a viability, T/C [9] of 18% and a viability, T/C [10] of 14.4%. The viability, T/C [11] was 16.1%, the viability, T/C [12] was 12.6% and the viability, T/C [13] was 54.1%. The viability, T/C [14] was 28%, the viability, T/C [15] was 18.9% and the viability, T/C [16] was 14.5%. The viability, T/C [17] was 14.1%, the viability, T/C [18] was 13.5% and the viability, T/C [19] was 40.6%. The viability, T/C [20] was 22.8%, the viability, T/C [21] was 15.5% and the viability, T/C [22] was 14.1%. For the same compound, the viability, T/C [23] was 13.3%, the viability, T/C [24] was 12.8% and the viability, T/C [25] was 20.9%. For the same compound, the viability, T/C [26] was 17.4%, the viability, T/C [27] was 16.8% and the viability, T/C [28] was 13.2%. The viability, T/C [29] was 13.4% and the viability, T/C [30] was 13.2%.
Work on `CCN1CCN(Cc2ccc(Nc3ncc(F)c(-c4cc(F)c5nc(C)n(C(C)C)c5c4)n3)nc2)CC1` + C=CC(=O)N1CCN(c2nc(=O)n(-c3c(C)ccnc3C(C)C)c3nc(-c4c(O)cccc4F)c(F)cc23)C(C)C1 yielded an IC50 (second compound 0.1 µM) of 8.91 nM, an IC50 (second compound 0.316 µM) of 6.62 nM and an IC50 (second compound 1 µM) of 11.7 nM. For the same compound, the IC50 (second compound 3.16 µM) was 6.49 nM, the IC50 (second compound 10 µM) was < 3.16 nM and the viability, T/C (second compound 0.1 µM, first compound 0.00316 µM) was 57.6%. The viability, T/C [1] was 54.7%, the viability, T/C [2] was 39.8% and the viability, T/C [3] was 37.5%. For the same compound, the viability, T/C [4] was 37.1%, the viability, T/C [5] was 43.1% and the viability, T/C (second compound 0.316 µM, first compound 0.00316 µM) was 59.8%. For the same compound, the viability, T/C [7] was 46.5%, the viability, T/C [8] was 38.7% and the viability, T/C [9] was 29.6%. For the same compound, the viability, T/C [10] was 33.5%, the viability, T/C [11] was 43.8% and the viability, T/C (second compound 1 µM, first compound 0.00316 µM) was 51%. It also gave a viability, T/C [13] of 52.8%, a viability, T/C [14] of 36.4% and a viability, T/C [15] of 35.5%. It also gave a viability, T/C [16] of 31.6%, a viability, T/C [17] of 48.8% and a viability, T/C (second compound 3.16 µM, first compound 0.00316 µM) of 56.6%. For the same compound, the viability, T/C [19] was 49.1%, the viability, T/C [20] was 38.1% and the viability, T/C [21] was 39.5%. It also gave a viability, T/C [22] of 33.4%, a viability, T/C [23] of 51.5% and a viability, T/C (second compound 10 µM, first compound 0.00316 µM) of 38.6%. The viability, T/C [25] was 52.2%, the viability, T/C [26] was 37.6% and the viability, T/C [27] was 36.5%. It also gave a viability, T/C [28] of 37.1% and a viability, T/C [29] of 45.4%.
Compound `CCNC(=O)CC1N=C(c2ccc(Cl)cc2)c2cc(OC)ccc2-n2c(C)nnc21` (stereo not given) + C=CC(=O)N1CCN(c2nc(=O)n(-c3c(C)ccnc3C(C)C)c3nc(-c4c(O)cccc4F)c(F)cc23)C(C)C1 has an IC50 (second compound 0.1 µM) of 116 nM, an IC50 (second compound 0.316 µM) of 135 nM and an IC50 (second compound 1 µM) of 51.8 nM. The IC50 (second compound 3.16 µM) was 111 nM, the IC50 (second compound 10 µM) was < 31.6 nM and the viability, T/C [2] was 54.6%. The viability, T/C [3] was 52.5%, the viability, T/C [4] was 35.9% and the viability, T/C [5] was 30.9%. It also gave a viability, T/C [6] of 30%, a viability, T/C [31] of 25.6% and a viability, T/C [8] of 51.5%. For the same compound, the viability, T/C [9] was 55.5%, the viability, T/C [10] was 40% and the viability, T/C [11] was 31%. For the same compound, the viability, T/C [12] was 28.6%, the viability, T/C [32] was 25.7% and the viability, T/C [14] was 51.3%. The viability, T/C [15] was 49.2%, the viability, T/C [16] was 40% and the viability, T/C [17] was 32.5%. It also gave a viability, T/C [18] of 27.6%, a viability, T/C [33] of 30.1% and a viability, T/C [20] of 57.1%. For the same compound, the viability, T/C [21] was 51.9%, the viability, T/C [22] was 35.5% and the viability, T/C [23] was 33.6%. For the same compound, the viability, T/C [24] was 28.3%, the viability, T/C [34] was 28.3% and the viability, T/C [26] was 46.4%. The viability, T/C [27] was 38.4%, the viability, T/C [28] was 27.7% and the viability, T/C [29] was 24.9%. It also gave a viability, T/C [30] of 20.1% and a viability, T/C [35] of 18.5%.
For `Cn1nccc1Nc1nccc(-c2cc3c(s2)C(C)(C)N(CCN2CCOCC2)C3=O)n1` + C=CC(=O)N1CCN(c2nc(=O)n(-c3c(C)ccnc3C(C)C)c3nc(-c4c(O)cccc4F)c(F)cc23)C(C)C1, the IC50 (second compound 0.1 µM) was 67.8 nM, the IC50 (second compound 0.316 µM) was < 31.6 nM and the IC50 (second compound 1 µM) was < 31.6 nM. The IC50 (second compound 3.16 µM) was > 10000 nM, the IC50 (second compound 10 µM) was < 31.6 nM and the viability, T/C [2] was 52%. It also gave a viability, T/C [3] of 49.4%, a viability, T/C [4] of 46.8% and a viability, T/C [5] of 38.2%. It also gave a viability, T/C [6] of 32.6%, a viability, T/C [31] of 36% and a viability, T/C [8] of 48.3%. It also gave a viability, T/C [9] of 48%, a viability, T/C [10] of 41.8% and a viability, T/C [11] of 46.1%. The viability, T/C [12] was 40%, the viability, T/C [32] was 42.4% and the viability, T/C [14] was 53.8%. It also gave a viability, T/C [15] of 50%, a viability, T/C [16] of 45.1% and a viability, T/C [17] of 43.2%. For the same compound, the viability, T/C [18] was 43.9%, the viability, T/C [33] was 60.7% and the viability, T/C [20] was 51.5%. It also gave a viability, T/C [21] of 53%, a viability, T/C [22] of 48% and a viability, T/C [23] of 47.6%. For the same compound, the viability, T/C [24] was 51.3%, the viability, T/C [34] was 71.1% and the viability, T/C [26] was 45.7%. It also gave a viability, T/C [27] of 45.2%, a viability, T/C [28] of 42.6% and a viability, T/C [29] of 42.5%. The viability, T/C [30] was 43.3% and the viability, T/C [35] was 53.6%.
